Data reported in the pKa sets of Baltruschat and Czodrowski (2020).

SMILES	pKa
COCc1nc2ccccc2n1Cc1ccc(C(C)(C)C)cc1	4.2
Nc1nccc(N2CCc3ccc(Br)cc32)n1	6.9
CC(=O)Nc1cccc(Nc2nc(Nc3ccccc3)n3ncc(C#N)c3n2)c1	9.7
O=C(NC(=O)c1ccccc1)c1ccccc1	9.9
Cc1nc2ccccn2c1C(=O)NCc1ccc(Cl)cc1	5.1
COc1cccc(-c2cnc(N)c(-c3ccc(C(N)=O)cc3)c2)c1	5.3
COc1ccc(CNC(=O)c2c(C)nc3ccccn23)cc1	5
COc1ccc(C2=C([O-])c3ccccc3C2=O)cc1	4.1
CC(=O)Nc1ccc(Nc2ncnc3c2c(-c2ccccc2)cn3-c2ccccc2)cc1	3.9
C1=C(c2ccc3ccccc3c2)N2CC[NH+]=C2c2ccccc21	10.2
Cc1cc(C)nc(N2CCC3(CCCC(=O)N3Cc3cccc4[nH]ccc34)CC2)n1	4.4
COc1ccc(Nc2ccc3ccccc3n2)cc1	6.5
N#Cc1ccc2ccn(-c3ccnc(N)n3)c2c1	4.6
Cc1csc2ccc3[nH]c4c(c3c12)C[NH+](C)CC4	8.6
O=C(NO)C1c2ccccc2-c2ccccc21	8.7
O=C1N(Cc2c[nH]c3ccccc23)CCCC12CCN(c1cnc3ccccc3n1)CC2	3.9
Cc1ccc(C)c(CN2C(=O)CCCC23CCN(c2cnc4ccccc4n2)CC3)c1	3.4
CCS(=O)(=O)c1ccc(CC(=O)Nc2nc(-c3ccccc3)c(C(=O)c3ccccc3)s2)cc1	7.9
O=C(Nc1ccc(Cl)cc1)NS(=O)(=O)c1ccc(Cl)cc1	3.4
COc1ccc(Br)c(C=O)c1O	7.5
CNC(=O)c1ccc(Oc2ccc3c(c2)CC[NH+](C2CCC2)CC3)nc1	8.6
O=c1[nH]c2cc(-c3ccc(F)cc3)ccc2cc1[O-]	8.1
Nc1cccc2c1C(=O)N(C1CCC(=O)NC1=O)C2=O (centres undefined)	10.8
O=C(NCc1ccc(Cl)cc1)c1cn2c(CCO)cc3cc(C[NH+]4CCOCC4)cc(c1=O)c32	5.9
Cc1ccc(C)n1-c1ccc(SCC(=O)[O-])cc1	3.5

SMILES	pKa
Cc1nc(-c2ccc(OCC(C)C)c(C#N)c2)sc1C(=O)[O-]	4
Cc1nc(C(=O)[O-])ccc1N(C)Cc1cccc(Cl)c1	4.45
N#Cc1cccc(Nc2ccccc2C(=O)[O-])c1	3.9
C[C@H](C#Cc1ccc(Cc2ccc(F)cc2)s1)N(O)C(N)=O	10.4
N#Cc1cnc(NC(=O)Nc2ccc(Cl)c(Cl)c2)s1	7.5
Nc1ncnc2ccc(-c3ccnc(F)c3)nc12	4.5
COc1ccc2c(c1)CN(C(=O)CC[NH+]1CCC(Cc3ccccc3)CC1)CCS2	8.3
CCc1ccccc1N(CC)C(=O)C1CCN(c2ncnc3c2nc2n3CCCCC2)CC1	3.9
O=C1N(Cc2c[nH]c3ccccc23)CCCC12CCN(c1ncccn1)CC2	3.8
Cc1cc(C)c2cc(C(=O)NC3CC[NH+](C)CC3)[nH]c2c1	8.5
O=C([O-])c1ccccc1Nc1cc(F)cc(C(F)(F)F)c1	3.9
COc1ccc(NS(=O)(=O)c2ccc(-n3cccn3)cc2)cc1OC	8.3
COC(=O)c1ccc2[nH]cc(CN3CCCC4(CCN(c5nc(C)cc(C)n5)CC4)C3=O)c2c1	4.8
O=C1CN(c2ccccc2)C(=O)N1	8.3
COc1ccc2[nH]cc(CN3CCCC4(CCN(c5nc(C)cc(C)n5)CC4)C3=O)c2c1	4.65
Fc1cccc(-c2c[nH]c3ncccc23)c1	4.1
COc1cccc2[nH]cc(-c3ccnc(N)n3)c12	5.52
Cc1cc(C)nc(N2CCC3(CCCN(Cc4cn(C)c5ccccc45)C3=O)CC2)n1	4.7
O=c1[nH]c2ccccc2c(=O)n1CCCl	10
Nc1n[nH]c2cc(Br)ccc12	2.9
O=C([O-])c1ccc(-c2nn(C(=O)c3c(Cl)cccc3Cl)c3ccccc23)cc1	3.2
COc1ccc2c(c1)C[NH+](C)CCS2	7.5
O=C([O-])c1ccccc1Nc1cc(C(F)(F)F)cc(C(F)(F)F)c1	3.9
N#Cc1c(-c2ccccc2)nc(SCc2ccccc2)[nH]c1=O	4.5
O=C([O-])CSc1ncnc2cc(-c3ccc(Br)cc3)sc12	3.5

SMILES	pKa
Cc1ccc(C)n1-c1ccc(C(=O)[O-])c(O)c1	2.3
c1ccc(N2CC[NH2+]CC2)cc1	9
c1ccc(Nc2nc(NC3CCCCC3)nc3ccccc23)cc1	8
O=C1CCCC2(CCN(c3cnc4ccccc4n3)CC2)N1Cc1c[nH]c2ccccc12	3.3
C[NH+](C)CCSc1nc2ccccc2cc1-c1ccccc1	8.4
O=C(Nc1nnc(-c2cccs2)o1)c1cccc(C(F)(F)F)c1	5.7
Cc1ccc(OC(C)(C)C(=O)N[C@@H](C)[C@@H](Cc2ccc(OCCF)cc2)c2cccc(C#N)c2)nc1	2.7
Cc1cc(N)nc2ccccc12	7.9
CC(c1cc2ccccc2s1)N(O)C(N)=O (centres undefined)	10.2
COc1ccc2nccc(-n3cc4c(n3)CCC(NC(=O)c3ccc5c(c3)NC(=O)CS5)C4)c2n1 (centres undefined)	3.8
Fc1ccccc1C1=Cc2ccccc2C2=[NH+]CCN12	10.2
COc1ccccc1S(=O)(=O)Nc1ccc2c(c1)CN(C)C(=O)N2	8.65
CN1C(=O)Cn2cc(C(=O)NCc3ccc(Cl)cc3)c(=O)c3cc(C[NH+]4CCOCC4)cc1c32	6.2
CC(C)Oc1ccc(Cc2ccc(NC3=[NH+]CCN3)cc2)cc1	10.5
O=C1N(Cc2cccc3[nH]ccc23)CCCC12CCN(c1cnc3ccccc3n1)CC2	3.75
Ic1cccc(-c2nn[n-]n2)c1	3.7
O=C1CCCC2(CCN(c3cnc4ccccc4n3)CC2)N1Cc1ccccc1	3.3
Cc1ccc(NC(=O)c2cccc(C(C)(C)C#N)c2)cc1Nc1ccc2ncn(C)c(=O)c2c1	3.6
COc1cc(Nc2ccccc2C(=O)[O-])cc(OC)c1	4
Nc1nc(-c2ccccc2)cc2ccccc12	6.9
C1=C(c2ccccc2)N2CC[NH+]=C2c2ccccc21	10.3
COc1ccc(-c2cnc3c(-c4cccc5ncccc45)cnn3c2)cc1	4.4
Cc1ccc(NC(=O)c2ccccc2)cc1Nc1nccc(-c2cccnc2)n1	3.9
O=C(Nc1nnc(-c2ccc(F)cc2)o1)c1ccc(Cl)s1	5.8
CCOC(=O)N1CCC(C)(C[NH+]2CCC3(CC2)CN(S(C)(=O)=O)c2ncccc23)CC1	8.5

SMILES	pKa
CC(C(=O)[O-])c1ccc2c(c1)Cc1ccccc1-2 (centres undefined)	4.3
O=S(=O)(c1ccccc1)n1cc(-c2cccc3nccn23)c2ccccc21	6.4
NC(=O)c1cccc(-c2cc(Nc3ccc(OC(F)(F)F)cc3)ncn2)c1	4
CCc1cc(Br)ccc1S(=O)(=O)NCc1ccccc1	10.6
O=C1CCN(Cc2ccccc2)C(=O)N1	11.7
NC(=O)c1ccc(-c2cc(-c3ccccc3)cnc2N)cc1	5.4
Nc1ncnc2ccc(-c3cccc(F)c3)nc12	4.7
CC(C(=O)[O-])c1ccc2c(c1)C(=O)c1ccccc1CS2 (centres undefined)	4.1
Cc1ccc2nc(N)ccc2c1	7.6
c1ccc(-c2cnc3c(-c4ccnc5ccccc45)cnn3c2)cc1	4.9
O=C(Nc1ccc(F)c(Cl)c1)C1CCN(c2ncccn2)CC1	3.8
Cn1cc(C(=O)[O-])c(=O)c2ccccc21	6.5
O=c1cc(CSc2cccc(F)c2F)nc2cc[nH]n12	7.35
Cc1cc(C)nc(N2CCC3(CCCN(Cc4nn(C)nc4-c4ccccc4)C3=O)CC2)n1	4.7
O=c1ccc2nc3ccc(O)cc3oc-2c1	5.8
O=C([O-])COc1ccc2c(c1)Cc1ccccc1-2	3
CC(C)Nc1nc(Nc2ccc(C(N)=O)cc2)c2sccc2n1	6.3
O=C(CSc1nccn1C1CCCC1)Nc1ccc(C(F)(F)F)cc1	5.1
COc1ccc(-c2nc(Nc3ccc(F)cc3F)c3ccccc3n2)cc1OC	5.2
C=CC(=O)Nc1cccc(Nc2nc(Nc3ccc(OCCOC)cc3)ncc2F)c1	4.8
O=Cc1cc(Br)cc(Br)c1O	5.3
O=C(/C=C/c1ccc(Br)cc1)N1CC[NH+](Cc2ccccc2)CC1	6.1
N#Cc1ccc2[nH]cc(-c3ccnc(N)n3)c2c1	5.3
O=C(Nc1nccs1)C(CC1CCCC1)c1ccc(Cl)cc1 (centres undefined)	10.5
Cc1cc(C)nc(N2CCC3(CCCN(Cc4ccccc4-c4nc(C)no4)C3=O)CC2)n1	4.8

SMILES	pKa
O=C(NO)C1c2ccccc2Oc2ccccc21	8.4
O=C1N(Cc2ccccc2)CCCC12CCN(c1cnc3ccccc3n1)CC2	3.6
CCc1ccc(/C=C2/SC(=S)[N-]C2=O)cc1	5.8
Cc1cc(C(=O)C[NH+]2CCCC2)c(C)n1-c1ccc(F)cc1	9
N#Cc1csc(NC(=O)Nc2ccc(Cl)c(Cl)c2)n1	8.3
CCc1ncnc(NC(CC)c2ccc(Oc3ccc(F)cc3)cc2)c1Br (centres undefined)	4.3
O=c1[nH]c2ccc(-c3ccc(F)cc3)cc2cc1[O-]	8.2
O=C(Nc1ccccc1C(=O)[O-])c1ccc(-c2ccccc2)cc1	3.2
CCNC(=O)OC1CCN(c2nncc3cc(OC)c(OC)cc23)CC1	5.4
CC(NC(=O)c1ccccc1/N=C/c1c(O)ccc2ccccc12)c1ccccc1 (centres undefined)	6.9
Nc1nc(-c2ccccn2)nc(N)c1Cc1ccc(Cl)cc1Cl	5.6
CS(=O)(=O)c1ccc(-c2cnc(N)c(-c3ccc(C(F)(F)F)cc3)c2)cc1	4.9
O=C(Nc1cccc(Cl)c1)c1ccccc1O	7.2
Clc1ccc2c(c1)[NH+]=C(N1CCCCC1)c1ccccc1N2	7.2
CCC1(c2ccccc2)C(=O)NC(=O)N(C)C1=O (centres undefined)	7.6
Nc1ccc(-c2cc3ccccc3oc2=O)cc1	3.9
O=C(Nc1ccccc1C(=O)[O-])c1cccc(Oc2ccccc2)c1	3.3
COc1cccc(-c2cccc(CCC3(C)CC(=O)N(C)C(N)=[NH+]3)c2)c1 (centres undefined)	9.4
COc1ccc(/C=C/C(=O)N2CCN(c3ccccn3)CC2)cc1	5.3
CCc1ccc(-c2cn3c([nH+]2)SCC3)cc1	4.8
COc1ccc(N)c2ccccc12	4.9
N#Cc1c(-c2ccc(Cl)cc2)nc(SCC(=O)Nc2ccc(Cl)cc2)[nH]c1=O	3.7
O=C(Nc1cccc(Cl)c1)c1ccc(Cl)cc1O	6.3
O=C(Cc1ccccc1)N1CCCC12CCN(c1cnc3ccccc3n1)CC2	3.6
